From PMC8202855, “Identification of novel hepatitis B virus therapeutic vaccine candidates derived from polymerase protein” (Aging (Albany NY), 2021)
Entries after “also recorded” stand apart in the source; their conditions may differ.

Columns and labels:
[1] = test system: epitope-specific T cells from PBMCs of healthy donors; experiment: In vitro human IFN-γ ELISPOT assay of epitope-specific T cells; type: cell-based; details: HLA-A0201-positive PBMCs of healthy donors cultured with peptide 50 μM and IL-2 100 U/ml, day 20; T cells 5x10^5/ml; versus PBS-induced control; 3 independent experiments
Description: In order to measure the ability of epitope-specific T cells to produce IFN-γ, the ELISPOT assay was performed according to the instructions of the kit (Invitrogen, Carlsbad, CA, USA). Epitope-specific T cells(5x10^5/ml) were added to plates. An automated ELISPOT plate reader was used to quantify IFN-γ release by counting the number of spots present.

HepG2.2.15 cells = experiment: In vitro cytotoxicity assay against HepG2.2.15 cells (LDH release); type: cell-based; details: effector:target 20:1, 37° C, 12 hours, versus PBS-induced control, 3 independent experiments
Description: In order to determine the antiviral abilities of epitope-specific T-cells, we detect the cytotoxicity of epitope-specific T cells against HepG2.2.15 cell. […] The ratios of epitope-specific T-cells versus HepG2.2.15 cells were set to 5:1, 10:1, 20:1. The effector cells and target cells were incubated together in 96-well plates at 37° C for 12 hours, and each well was added to total volume of 200 ul. The cytotoxicity activity of epitope-specific T-cells was evaluated based on LDH release using a non-radio-active cytotoxicity assay kit (Promega, US). The percentage of lysis was calculated as formula: (experimental release- target cell spontaneous release- effector cell spontaneous release)/(target cell maximum release- target cell spontaneous release).

HBsAg = details: co-culture with HepG2.2.15 cells, effector:target 10:1, 72 hours, supernatant ELISA; versus PBS group; 3 independent experiments
Description: (§1) To validate the ability of epitopes to induce and stimulate the epitope-specific T cells, we used PBMCs from the blood of healthy donors. […] PBMCs were obtained through centrifugation at a Ficoll-Paque density gradient and suspended in RPMI-1640 medium supplemented with 10% fetal bovine serum (FBS), 100 U/ml penicillin and 100 μM streptomycin. PBMCs were stained by FITC-conjugated anti-HLA-A2 mAb and analyzed by flow cytometry. HLA-A0201-positive PBMCs were used for the expansion of epitope-specific T cells. PBMCs were cultured with each peptide (50 μM) and recombinant interleukin 2 (100 U/ml; Sigma, USA). Half of the culture medium was replaced with fresh RPMI-1640 medium every 3 or 4 days. […]
(§2) The antiviral abilities of epitopes were also determined by HBV gene expression assay. […] The HBsAg concentration was detected by enzyme-linked immunosorbent assay (ELISA) according to the manufacturer’s protocol (Shanghai Siic Kehua Biotech Co., Ltd.). And the HBV-DNA concentration was detected by real-time fluorescence quantitative PCR according to the manufacturer’s protocol (Yaneng Bioscience (Shenzhen) Co., Ltd.). […] The inhibition ratios of HBsAg and HBV-DNA were calculated as the formula: (1- experimental group/ control group)×100%.

T2 cells = experiment: In vitro cytotoxicity assay against T2 cells (LDH release); type: cell-based; details: peptide-pulsed T2 cells 1×10^5/well, effector:target 10:1, 20:1, 40:1, 37° C, 5 hours, 3 independent experiments
Description: T2 cell is (transporter associated with antigen processing, TAP) deficient cell line. When T2 cell is cultured with different epitopes, the HLA-A0201 molecule on surface of T2 cell will bind to different epitopes, the epitope-HLA-A0201 complex can be recognized by epitope-specific T cells and corresponding T2 cell will be lysed. In order to determine the cytotoxic activity of epitope-specific T cells, we measured LDH release based on the instructions of a non-radioactive cytotoxicity assay kit (Promega, USA). Epitope-specific T cells served as effector cells, and T2 cells loaded with or without each peptide served as target cells. The ratios of effector cells versus target cells were set to 10:1, 20:1 and 40:1. The effector cells were co-cultured with target cells (1×10^5/well) at 37° C for 5 hours, and LDH release was measured.

HBV-DNA = experiment: HBV gene expression assay: HBV-DNA (real-time fluorescence quantitative PCR); type: cell-based, Hepatitis B virus; details: co-culture with HepG2.2.15 cells, effector:target 10:1, 72 hours, supernatant quantitative PCR; versus PBS group; 3 independent experiments
Description: as §1, §2

HLA-A0201 molecule = target: T1, HLA-A0201 molecule (Homo sapiens, UniProt P04439, D140Y/D185E/D98H/E176V/E277Q/G131W/G231S/I119V/I121R/I166T/I218V/L300P/L318F/N151K/N90K/P208A/P217A/Q86G/Q94H/R138H/R169H/T345S); experiment: Peptide binding assay on T2 cells (HLA-A0201, flow cytometry); details: T2 cells 1×10^6/well, peptide 100 μM, 18 hours, 37° C; FITC anti-HLA-A2 mAb BB7.2, flow cytometry; FI = (MFI peptide - background MFI)/background MFI; FI > 1 = high affinity; one representative of 3 independent experiments
T1 construct: endogenous in cells; host or cells: T2 cells (TAP-deficient human cell line)
Description: To analyze the binding affinity between epitopes and the HLA-A0201 molecule, we performed a peptide binding assay according to our previous study [18]. Briefly, T2 cells (1×10^6/well) were incubated with peptides (100 μM) in 24-well plates for 18 hours at 37° C. T2 cells without peptides served as a background control. After being washed with phosphate buffer saline (PBS) three times, cells were stained with FITC-conjugated anti-HLA-A2 mAb BB7.2 and analyzed using a BD AccuriC6 flow cytometer (Becton Dickinson, Mountain View, CA, USA). The mean fluorescence index (MFI) was recorded [43]. We calculated the fluorescence index (FI) as follows: FI = (MFI with individual peptides - background MFI)/(background MFI).

| Sequence | IFN-γ secretion of epitope-specific T cells (ELISPOT, in words) [1] | Cytotoxic activity of epitope-specific T cells against HepG2.2.15 cells (in words) (HepG2.2.15 cells) | Inhibition of HBsAg expression by epitope-specific T cells (in words) (HBsAg) | Cytotoxic activity of epitope-specific T cells toward T2 cells (in words) (T2 cells) | Elimination of HBV-DNA by epitope-specific T cells (in words) (HBV-DNA) | Fluorescence index (FI) (HLA-A0201 molecule) |
| --- | --- | --- | --- | --- | --- | --- |
| GLLGFAAPF | more IFN-γ secretion than was measured in control (P<0.05) | higher cytotoxic activities against HepG2.2.15 cells compared to control group (P<0.05) | higher activities to inhibit the expression of HBsAg compared to the PBS group (P<0.05) | higher cytotoxic activity toward T2 cells compared to T cells stimulated by other epitopes | higher abilities to eliminate HBV-DNA compared to the PBS group (P<0.05) |  |
| HLPDRVHFA |  |  |  |  |  | 0.2920 |
| HLYSHPIIL | more IFN-γ secretion than was measured in control (P<0.05) | higher cytotoxic activities against HepG2.2.15 cells compared to control group (P<0.05) | higher activities to inhibit the expression of HBsAg compared to the PBS group (P<0.05) | higher cytotoxic activity toward T2 cells compared to T cells stimulated by other epitopes | higher abilities to eliminate HBV-DNA compared to the PBS group (P<0.05) |  |
| RVTGGVFLV | lesser ability to induce epitope-specific T cells | higher cytotoxic activities against HepG2.2.15 cells compared to control group (P<0.05); also recorded: obvious weaker than the other two epitopes |  | lesser ability to induce epitope-specific T cells |  |  |
| YVIGSWGTL |  |  |  |  |  | 0.8953 |
